For 3 molecules, Km and K i results are on record in publication PMC3840712, “Enzymatic properties of Thermoanaerobacterium thermosaccharolyticum β-glucosidase fused to Clostridium cellulovorans cellulose binding domain and its application in hydrolysis of microcrystalline cellulose” (BMC Biotechnology, 2013).

Assay [1] has as its system T1, BGL-CBD.
T1 construct: one polypeptide: BGL - PPP linker - C. cellulovorans CBD, pET-20b (NdeI/BamHI/XhoI; pET-BGL-Linker-CBD), Ni-NTA purified, E. coli JM109(DE3), about 69 kDa
Nature of the assay: initial rates, pNP release at […] nm. Conditions: 50 mM citrate pH 6.0, 65°C. The assay is classed as biochemical, Thermoanaerobacterium thermosaccharolyticum.

The target in assay [2] is T2, BGL (Thermoanaerobacterium thermosaccharolyticum, UniProt D9TR57).
T2 construct: gene Tthe_1813
T2 sequence (D9TR57 1-444): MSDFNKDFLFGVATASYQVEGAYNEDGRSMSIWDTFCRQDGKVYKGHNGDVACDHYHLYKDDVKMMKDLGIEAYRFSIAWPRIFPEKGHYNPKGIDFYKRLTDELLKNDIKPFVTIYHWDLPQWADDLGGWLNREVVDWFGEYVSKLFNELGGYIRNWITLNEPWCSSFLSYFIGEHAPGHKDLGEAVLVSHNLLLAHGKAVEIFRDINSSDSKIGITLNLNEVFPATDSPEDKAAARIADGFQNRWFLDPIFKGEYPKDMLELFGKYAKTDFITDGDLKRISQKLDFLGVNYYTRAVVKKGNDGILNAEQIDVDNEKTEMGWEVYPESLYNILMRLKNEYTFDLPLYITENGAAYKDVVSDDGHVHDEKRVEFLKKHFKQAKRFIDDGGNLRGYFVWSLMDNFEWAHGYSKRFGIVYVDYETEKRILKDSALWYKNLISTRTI
Description: initial rates, pNP release at […] nm. Format: biochemical. Conditions: 50 mM citrate pH 6.0, 65°C.

The target of assay [3] is T2, BGL. Description: initial rates, cellobiose hydrolysis. Format: biochemical. Conditions: 50 mM citrate pH 6.0, 65°C.
Assay [4] deals with T1, BGL-CBD. Nature of the assay: initial rates, cellobiose hydrolysis. The assay is classed as biochemical, Thermoanaerobacterium thermosaccharolyticum. As to conditions: 50 mM citrate pH 6.0, 65°C. The source says:
initial rates, cellobiose hydrolysis on BGL-CBD

Assay [5] concerns the target T2, BGL. Nature of the assay: pNP release at […] nm, […] inhibition. The assay is classed as biochemical. Conditions: pNPG as substrate, 50 mM citrate pH 6.0, 65°C; K i defined as glucose giving 50% inhibition.

Structures are written as SMILES.

With `O=[N+]([O-])c1ccc(O[C@@H]2O[C@H](CO)[C@@H](O)[C@H](O)[C@H]2O)cc1` [p-nitrophenyl-β-D-glucopyranoside], the Michaelis constant (Km) in assay [1] is 250 µM; in assay [2], 620 µM. Take `OC[C@H]1O[C@@H](O[C@H]2[C@H](O)[C@@H](O)C(O)O[C@@H]2CO)[C@H](O)[C@@H](O)[C@@H]1O` (some centres unmarked) [cellobiose]: the results for the Michaelis-Menten constant (Km) in assay [3] and in assay [4] were 7900 µM and 2620 µM, respectively. Take `OC[C@H]1OC(O)[C@H](O)[C@@H](O)[C@@H]1O` (some centres unmarked) [glucose]: in assay [5], the K i entry is listed as “The BGL-CBD yielded approximately two times higher K i values for glucose than the BGL”.

By Km is commonly meant the concentration of substrate that gives half-maximal velocity.
